Six molecules from article PMC6364417, “Kinase inhibitor library screening identifies synergistic drug combinations effective in sensitive and resistant melanoma cells” (Journal of Experimental & Clinical Cancer Research : CR, 2019) can be followed below.

Holding throughout (assay): Kinase inhibitor library screening, PrestoBlue cell viability, 1 or 10 μM, 72 h
In one data set the test system is 501Mel cells (parental). To be noted: 501Mel Parental. In a few lines: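 Normalised to untreated controls, viability percentages came from PrestoBlue measured on a microplate reader following 72 h incubation with drug. Each line was assayed at least twice.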
Data set [1] relates to 501Mel-GP cells (Dabrafenib-resistant). To be noted: 501Mel GP.
In data set [2] the test system is 501Mel-XP cells (Vemurafenib-resistant). As to conditions: 501Mel XP.
A further data set has as its system A375 cells (parental). As to conditions: A375 Parental.
Data set [3] has as its system A375-GP cells (Dabrafenib-resistant). As to conditions: A375 GP.
The test system of data set [4] is A375-XP cells (Vemurafenib-resistant). As to conditions: A375 XP.
The subject of a further data set is IGR37 cells (parental). As to conditions: IGR37 Parental.
Data set [5] has as its system IGR37-GP cells (Dabrafenib-resistant). As to conditions: IGR37 GP.
In data set [6] the test system is IGR37-XP cells (Vemurafenib-resistant). As to conditions: IGR37 XP.

With `CO[C@@H](C(=O)N1Cc2n[nH]c(NC(=O)c3ccc(N4CCN(C)CC4)cc3)c2C1)c1ccccc1` [Danusertib (PHA-739358)], the “cell viability (kinase inhibitor library screening)” value with 501Mel cells (parental) (1μΜ, 72 h) turned out to be 94.3%; in the data set with 501Mel cells (parental) (10μΜ, 72 h) it was 80.7%; in [1] (1μΜ, 72 h), 94.8%; in data set [1] (10μΜ, 72 h), 72.3%; in [2] (1μΜ, 72 h), 84.5%; in [2] (10μΜ, 72 h), 58.4%. Also, the “cell viability (kinase inhibitor library screening)” value with A375 cells (parental) (10μΜ, 72 h) stood at 28.0%; in the data set on A375 cells (parental) (1μΜ, 72 h), 51.2%; in [3] (1μΜ, 72 h), 48.5%; in data set [3] (10μΜ, 72 h), 27.8%; in data set [4] (1μΜ, 72 h) it was 53.8%; in [4] (10μΜ, 72 h), 35.5%. The “cell viability (kinase inhibitor library screening)” value in the data set on IGR37 cells (parental) (10μΜ, 72 h) was 59.2%; in data set [5] (10μΜ, 72 h), 66.0%; in [6] (10μΜ, 72 h), 21.3%.
As to `Cc1nc(Nc2ncc(C(=O)Nc3c(C)cccc3Cl)s2)cc(N2CCN(CCO)CC2)n1` [Dasatinib (BMS-354825)], the “cell viability (kinase inhibitor library screening)” value is 91.7 with 501Mel cells (parental) (1μΜ, in %); 73.7 with 501Mel cells (parental) (10μΜ, in %); 96.7 in [1] (1μΜ, in %); 77.1 in [1] (10μΜ, in %); 88.2 in data set [2] (1μΜ, in %); 63.3 in data set [2] (10μΜ, in %). Also, the “cell viability (kinase inhibitor library screening)” value in the data set on A375 cells (parental) (1μΜ, in %) worked out at 68.7; in the data set with A375 cells (parental) (10μΜ, in %) it was 30.8; in data set [3] (1μΜ, in %), 63.7; in data set [3] (10μΜ, in %) it was 48.1; in [4] (1μΜ, in %), 70.6; in [4] (10μΜ, in %), 57.8. Moreover, the “cell viability (kinase inhibitor library screening)” value amounted to 98.7 in the data set on IGR37 cells (parental) (1μΜ, in %); 80.2 in the data set with IGR37 cells (parental) (10μΜ, in %); 91.4 in data set [5] (1μΜ, in %); 66.8 in data set [5] (10μΜ, in %); 88.2 in [6] (1μΜ, in %); 39.8 in data set [6] (10μΜ, in %).
With `CO[C@H]1C[C@@H]2CC[C@@H](C)[C@@](O)(O2)C(=O)C(=O)N2CCCC[C@H]2C(=O)O[C@H]([C@H](C)C[C@@H]2CC[C@@H](OP(C)(C)=O)[C@H](OC)C2)CC(=O)[C@H](C)/C=C(\C)[C@@H](O)[C@@H](OC)C(=O)[C@H](C)C[C@H](C)/C=C/C=C/C=C/1C` [Deforolimus (Ridaforolimus)], the “Cell viability in kinase inhibitor library screening, 501Mel Parental, 1μΜ” value with 501Mel cells (parental) (1μΜ, 72 h, in %) was found to be 84.8. In the data set with 501Mel cells (parental) (10μΜ, 72 h, in %), the “Cell viability in kinase inhibitor library screening, 501Mel Parental, 10μΜ” value was 82.7. Also, in [1] (1μΜ, 72 h, in %), the “Cell viability in kinase inhibitor library screening, 501Mel GP, 1μΜ” value was determined as 66.5. The “Cell viability in kinase inhibitor library screening, 501Mel GP, 10μΜ” value in data set [1] (10μΜ, 72 h, in %) is listed as 55.6. Also, in [2] (1μΜ, 72 h, in %), the “Cell viability in kinase inhibitor library screening, 501Mel XP, 1μΜ” value stood at 54.3. Also, the “Cell viability in kinase inhibitor library screening, 501Mel XP, 10μΜ” value in data set [2] (10μΜ, 72 h, in %) is reported as 40.7. Also, in the data set on A375 cells (parental) (10μΜ, 72 h), the “Cell viability in kinase inhibitor library screening, A375 Parental, 10μΜ” value turned out to be 73.5. In addition, the “Cell viability in kinase inhibitor library screening, A375 Parental, 1μΜ” value with A375 cells (parental) (1μΜ, 72 h) is listed as 82.1. In addition, in data set [3] (1μΜ, 72 h), the “Cell viability in kinase inhibitor library screening, A375 GP, 1μΜ” value came out at 79.3. Besides, the “Cell viability in kinase inhibitor library screening, A375 GP, 10μΜ” value in [3] (10μΜ, 72 h) was determined as 72.3. Also, in [4] (1μΜ, 72 h), the “Cell viability in kinase inhibitor library screening, A375 XP, 1μΜ” value is listed as 79.9. Also, in data set [4] (10μΜ, 72 h), the “Cell viability in kinase inhibitor library screening, A375 XP, 10μΜ” value is 76.9. Also, in the data set with IGR37 cells (parental) (1μΜ, 72 h, in %), the “Cell viability in kinase inhibitor library screening, IGR37 Parental, 1μΜ” value is listed as 82.2. Besides, the “Cell viability in kinase inhibitor library screening, IGR37 Parental, 10μΜ” value in the data set on IGR37 cells (parental) (10μΜ, 72 h, in %) was 86.0. In [5] (10μΜ, 72 h), this molecule displayed a Cell viability in kinase inhibitor library screening, IGR37 GP, 10μΜ of 76.8%. Also, the “Cell viability in kinase inhibitor library screening, IGR37 GP, 1μΜ” value in data set [5] (1μΜ, 72 h, in %) amounted to 90.2. This molecule gave a Cell viability in kinase inhibitor library screening, IGR37 XP, 10μΜ in data set [6] (10μΜ, 72 h) of 56.1%. Moreover, the “Cell viability in kinase inhibitor library screening, IGR37 XP, 1μΜ” value in data set [6] (1μΜ, 72 h, in %) amounted to 95.0.
In the case of `C#Cc1cccc(Nc2ncnc3cc(OCCOC)c(OCCO)cc23)c1` [Desmethyl Erlotinib (CP-473420)], the “cell viability, 501Mel Parental, 10μΜ” value with 501Mel cells (parental) (10μΜ, 72 h, in %) is 82.4. Also, the “cell viability, 501Mel GP, 1μΜ” value in data set [1] (1μΜ, 72 h, in %) came to 107.4. Also, in data set [1] (10μΜ, 72 h, in %), the “cell viability, 501Mel GP, 10μΜ” value worked out at 74.9. In [2] (1μΜ, 72 h, in %), the “cell viability, 501Mel XP, 1μΜ” value stood at 100.0. Besides, the “cell viability, 501Mel XP, 10μΜ” value in data set [2] (10μΜ, 72 h, in %) is 41.7. For the same molecule, in the data set on A375 cells (parental) (1μΜ, 72 h, in %), the “cell viability, A375 Parental, 1μΜ” value is given as 104.3. The “cell viability, A375 Parental, 10μΜ” value in the data set on A375 cells (parental) (10μΜ, 72 h, in %) is 78.2. In data set [3] (10μΜ, 72 h, in %), the “cell viability, A375 GP, 10μΜ” value was found to be 65.7. Further, in [4] (1μΜ, 72 h, in %), the “cell viability, A375 XP, 1μΜ” value is reported as 100.2. Moreover, in data set [4] (10μΜ, 72 h, in %), the “cell viability, A375 XP, 10μΜ” value is 81.3. For the same molecule, the “cell viability, IGR37 Parental, 1μΜ” value in the data set with IGR37 cells (parental) (1μΜ, 72 h, in %) is on record as 99.9. In addition, the “cell viability, IGR37 Parental, 10μΜ” value in the data set on IGR37 cells (parental) (10μΜ, 72 h, in %) was found to be 92.4. In data set [5] (10μΜ, 72 h), this molecule returned a cell viability, IGR37 GP, 10μΜ of 73.5%. Moreover, the “cell viability, IGR37 GP, 1μΜ” value in [5] (1μΜ, 72 h, in %) stood at 85.7. The cell viability, IGR37 XP, 10μΜ in data set [6] (10μΜ, 72 h) was found to be 49.7%. Also, the “cell viability, IGR37 XP, 1μΜ” value in data set [6] (1μΜ, 72 h, in %) is listed as 80.3.
Regarding `CCc1cnn2c(NCc3ccc[n+]([O-])c3)cc(N3CCCC[C@H]3CCO)nc12` [Dinaciclib (SCH727965)], the “cell viability (kinase inhibitor library screening)” value with 501Mel cells (parental) (1μΜ, 72 h) is on record as 1.5%; with 501Mel cells (parental) (10μΜ, 72 h), 1.3%; in data set [1] (1μΜ, 72 h) it was 0.636%; in data set [1] (10μΜ, 72 h), 0.422%; in data set [2] (1μΜ, 72 h), 0.85%; in data set [2] (10μΜ, 72 h), 0.249%. The “cell viability (kinase inhibitor library screening)” value amounted to 10.7% with A375 cells (parental) (10μΜ, 72 h); 10.8% in the data set with A375 cells (parental) (1μΜ, 72 h); 10.0% in [3] (1μΜ, 72 h); 6.1% in [3] (10μΜ, 72 h); 11.5% in data set [4] (1μΜ, 72 h); 8.1% in data set [4] (10μΜ, 72 h). Besides, the “cell viability (kinase inhibitor library screening)” value is given as 4.4% in the data set with IGR37 cells (parental) (1μΜ, 72 h); 2.8% in the data set on IGR37 cells (parental) (10μΜ, 72 h); 4.4% in [5] (1μΜ, 72 h); 2.3% in [5] (10μΜ, 72 h); 3.1% in data set [6] (1μΜ, 72 h); 2.6% in data set [6] (10μΜ, 72 h).
`CN1CCN(c2ccc3nc(-c4c(N)c5c(F)cccc5[nH]c4=O)[nH]c3c2)CC1` [Dovitinib (TKI-258)]: the “cell viability, 501Mel Parental, 1μΜ” value in the data set with 501Mel cells (parental) (1μΜ, 72 h, in %) was found to be 103.1. The “cell viability, 501Mel Parental, 10μΜ” value with 501Mel cells (parental) (10μΜ, 72 h, in %) is on record as 0.6. In addition, the “cell viability, 501Mel GP, 1μΜ” value in data set [1] (1μΜ, 72 h, in %) was found to be 95.0. Moreover, the “cell viability, 501Mel GP, 10μΜ” value in data set [1] (10μΜ, 72 h, in %) was -0.1. Further, the “cell viability, 501Mel XP, 1μΜ” value in data set [2] (1μΜ, 72 h, in %) was found to be 87.1. In addition, the “cell viability, 501Mel XP, 10μΜ” value in data set [2] (10μΜ, 72 h, in %) was -0.0348. The “cell viability, A375 Parental, 1μΜ” value in the data set with A375 cells (parental) (1μΜ, 72 h, in %) was 102.8. The “cell viability, A375 Parental, 10μΜ” value in the data set with A375 cells (parental) (10μΜ, 72 h, in %) came out at 47.2. The “cell viability, A375 GP, 1μΜ” value in data set [3] (1μΜ, 72 h, in %) is given as 93.5. The “cell viability, A375 GP, 10μΜ” value in [3] (10μΜ, 72 h, in %) was 42.2. Further, the “cell viability, A375 XP, 1μΜ” value in data set [4] (1μΜ, 72 h, in %) came out at 97.7. In addition, the “cell viability, A375 XP, 10μΜ” value in data set [4] (10μΜ, 72 h, in %) is given as 58.3. In addition, in the data set on IGR37 cells (parental) (1μΜ, 72 h, in %), the “cell viability, IGR37 Parental, 1μΜ” value is 96.1. Further, in the data set on IGR37 cells (parental) (10μΜ, 72 h, in %), the “cell viability, IGR37 Parental, 10μΜ” value is 64.0. In [5] (10μΜ, 72 h), the cell viability, IGR37 GP, 10μΜ was 42.8%. Further, the “cell viability, IGR37 GP, 1μΜ” value in [5] (1μΜ, 72 h, in %) was determined as 99.9. Besides, the cell viability, IGR37 XP, 10μΜ in data set [6] (10μΜ, 72 h) was 22.5%. In addition, the “cell viability, IGR37 XP, 1μΜ” value in [6] (1μΜ, 72 h, in %) stood at 102.6.
